According to patent US20100298141A1, “SUBSTITUTED PYRIDINE N-OXIDE HERBICIDES” (E. I. DU PONT DE NEMOURS AND COMPANY, priority 2007, published 2010):

Columns and labels:
[1] = system: pigweed; assay: Test C pre-/postemergence test; assay type: in vivo, Amaranthus retroflexus
Procedure, shortened: (§1)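 Seeds were planted and treated preemergence with test chemical in a non-phytotoxic solvent mixture containing surfactant. Postemergence applications of the same formulation went onto plants 2 to 18 cm tall (1- to 4-leaf stage). A dash marks no test result.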

[2] = system: wheat; assay: Test C pre-/postemergence test; assay type: in vivo, Triticum aestivum
Procedure, shortened: as §1

[3] = system: eastern black nightshade; assay: Test C pre-/postemergence test; assay type: in vivo, Solanum ptycanthum
Procedure, shortened: as §1

[4] = system: corn; assay: Test A pre-/postemergence greenhouse test; assay type: in vivo, Zea mays; settings: for Corn plant response rating: 0 to 100 scale; for Plant response rating, Corn: 0 to 100 scale where 0 is no effect and 100 is complete control
Procedure, shortened: (§2)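 Seeds sown in a loam soil–sand blend got a preemergence directed soil spray of compound in a non-phytotoxic solvent mixture containing surfactant. Postemergence sprays of the same formulation went at the same time onto plants 2–10 cm tall at the one- to two-leaf stage. Injury was scored visually against untreated controls after about ten days in the greenhouse.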

[5] = system: crabgrass; assay: Test C pre-/postemergence test; assay type: in vivo, Digitaria sanguinalis
Procedure, shortened: as §1

[6] = system: redroot pigweed; assay: Test A pre-/postemergence greenhouse test; assay type: in vivo, Amaranthus retroflexus; settings: for Pigweed plant response rating: 0 to 100 scale; for Plant response rating, Pigweed: 0 to 100 scale where 0 is no effect and 100 is complete control
Procedure, shortened: as §2

[7] = system: morningglory; assay: Test A pre-/postemergence greenhouse test; assay type: in vivo, Ipomoea spp.; settings: for Morningglory plant response rating: 0 to 100 scale; for Plant response rating, Morningglory: 0 to 100 scale where 0 is no effect and 100 is complete control
Procedure, shortened: as §2

[8] = system: rice; assay: Test C flooded paddy test; assay type: in vivo, Oryza sativa; settings: Flood
Procedure, shortened: (§3)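 In-water treatment: compound dosed into 3 cm flood over soil, water level unchanged throughout. Controls run alongside; visual assessment at day 13–15.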

[9] = system: Goosegrass; assay: Test C pre-/postemergence test; assay type: in vivo, Eleusin indica
Procedure, shortened: as §1

[10] = system: lambsquarters; assay: Test C pre-/postemergence test; assay type: in vivo, Chenopodium album
Procedure, shortened: as §1

[11] = system: giant foxtail; assay: Test A pre-/postemergence greenhouse test; assay type: in vivo, Setaria faberi; settings: for Foxtail, Giant plant response rating: 0 to 100 scale; for Plant response rating, Foxtail, Giant: 0 to 100 scale where 0 is no effect and 100 is complete control
Procedure, shortened: as §2

[12] = system: bermudagrass; assay: Test C pre-/postemergence test; assay type: in vivo, Cynodon dactylon
Procedure, shortened: as §1

[13] = system: Surinam grass; assay: Test C pre-/postemergence test; assay type: in vivo, Brachiaria decumbens
Procedure, shortened: as §1

[14] = system: barnyardgrass; assay: Test A pre-/postemergence greenhouse test; assay type: in vivo, Echinochloa crus-galli; settings: for Barnyardgrass plant response rating: 0 to 100 scale; for Plant response rating, Barnyardgrass: 0 to 100 scale where 0 is no effect and 100 is complete control
Procedure, shortened: as §2

[15] = system: umbrella sedge; assay: Test C flooded paddy test; assay type: in vivo, Cyperus difformis; settings: Flood
Procedure, shortened: as §3

[16] = system: wheat; assay: Test A pre-/postemergence greenhouse test; assay type: in vivo, Triticum aestivum; settings: for Wheat plant response rating: 0 to 100 scale; for Plant response rating, Wheat: 0 to 100 scale where 0 is no effect and 100 is complete control
Procedure, shortened: as §2

[17] = system: common (oilseed) sunflower; assay: Test C pre-/postemergence test; assay type: in vivo, Helianthus annuus
Procedure, shortened: as §1

[18] = 31 g ai/ha, Preemergence, scale 0 to 100
[19] = 62 g ai/ha, preemergence, scale 0 (no effect) to 100 (complete control)
[20] = preemergence, 125 g ai/ha, scale 0 (no effect) to 100 (complete control)
[21] = Postemergence, 125 g ai/ha, 0 is no effect, 100 is complete control
[22] = Postemergence, 500 g ai/ha, 0 is no effect, 100 is complete control
[23] = Preemergence, 125 g ai/ha, 0 no effect, 100 complete control
[24] = 31 g ai/ha, scale 0 to 100 (0 no effect, 100 complete control)
[25] = 62 g ai/ha, scale 0 to 100, 0 no effect, 100 complete control, 13 to 15 days
[26] = 125 g ai/ha, scale 0 to 100, 0 no effect, 100 complete control, 13 to 15 days
[27] = 250 g ai/ha, scale 0 to 100 (0 no effect, 100 complete control)
[28] = 62 g ai/ha, Preemergence, scale 0 to 100
[29] = 125 g ai/ha, preemergence, scale 0 (no effect) to 100 (complete control)
[30] = Preemergence, 31 g ai/ha, scale 0 to 100 (0 no effect, 100 complete control)
[31] = preemergence, 250 g ai/ha, scale 0 (no effect) to 100 (complete control)
[32] = Preemergence, 500 g ai/ha, 0 no effect, 100 complete control
[33] = 62 g ai/ha, scale 0 to 100 (0 no effect, 100 complete control)
[34] = 250 g ai/ha, scale 0 to 100, 0 no effect, 100 complete control, 13 to 15 days

Cc1cc[n+]([O-])c(S(=O)(=O)C(C)c2c(C(F)(F)F)nn(C)c2OC(F)F)c1 (centres unmarked) [Compound 11]
20: Wheat plant response rating [2, 19]
80: Wheat plant response rating [2, 20] | Plant response rating, Rice [8, 26] | Plant response rating, Rice [8, 27] | Foxtail, Giant plant response rating [11, 22] | Surinam Grass plant response rating [13, 19] | Barnyardgrass plant response rating [14, 22] | Plant response rating, Wheat ([16]; Preemergence, 500 g ai/ha)
95: Nightshade plant response rating [3, 18] | Surinam Grass plant response rating [13, 20]
40: Morningglory plant response rating [7, 21]
30: Corn plant response rating [4, 21] | Corn plant response rating [4, 23] | Sunflower plant response rating [17, 19]
50: Corn plant response rating [4, 22] | Morningglory plant response rating [7, 22] | Wheat plant response rating [16, 21] | Wheat plant response rating [16, 23]
60: Plant response rating, Corn ([4]; Preemergence, 500 g ai/ha) | Pigweed plant response rating [6, 22] | Morningglory plant response rating [7, 23] | Wheat plant response rating [16, 22]
85: Plant response rating (0 to 100), Wheat ([2]; Preemergence, 250 g ai/ha)
70: Plant response rating, Rice [8, 25] | Foxtail, Giant plant response rating [11, 21] | Barnyardgrass plant response rating [14, 21]
10: Pigweed plant response rating [6, 21]
98: Plant response rating (0 to 100), Sunflower ([17]; Preemergence, 250 g ai/ha) | Sunflower plant response rating [17, 20]
100: Pigweed plant response rating [1, 18] | Pigweed plant response rating [1, 19] | Plant response rating (0 to 100), Pigweed ([1]; Preemergence, 250 g ai/ha) | Pigweed plant response rating [1, 20] | Nightshade plant response rating [3, 19] | Plant response rating (0 to 100), Nightshade ([3]; Preemergence, 250 g ai/ha) | Nightshade plant response rating [3, 20] | Crabgrass, Large plant response rating [5, 18] | Crabgrass, Large plant response rating [5, 19] | Plant response rating (0 to 100), Crabgrass, Large ([5]; Preemergence, 250 g ai/ha) | Crabgrass, Large plant response rating [5, 20] | Pigweed plant response rating [6, 23] | Plant response rating, Pigweed ([6]; Preemergence, 500 g ai/ha) | Goosegrass plant response rating [9, 18] | Goosegrass plant response rating [9, 19] | Plant response rating (0 to 100), Goosegrass ([9]; Preemergence, 250 g ai/ha) | Goosegrass plant response rating [9, 20] | Lambsquarters plant response rating [10, 18] | Lambsquarters plant response rating [10, 19] | Plant response rating (0 to 100), Lambsquarters ([10]; Preemergence, 250 g ai/ha) | Lambsquarters plant response rating [10, 20] | Foxtail, Giant plant response rating [11, 23] | Plant response rating, Foxtail, Giant ([11]; Preemergence, 500 g ai/ha) | Bermudagrass plant response rating [12, 18] | Bermudagrass plant response rating [12, 19] | Plant response rating (0 to 100), Bermudagrass ([12]; Preemergence, 250 g ai/ha) | Bermudagrass plant response rating [12, 20] | Plant response rating (0 to 100), Surinam Grass ([13]; Preemergence, 250 g ai/ha) | Plant response rating, Barnyardgrass ([14]; Preemergence, 500 g ai/ha)
0: Plant response rating, Rice [8, 24] | Plant response rating, Sedge, Umbrella [15, 24]
90: Plant response rating, Morningglory ([7]; Preemergence, 500 g ai/ha) | Barnyardgrass plant response rating [14, 23] | Plant response rating, Sedge, Umbrella [15, 25] | Plant response rating, Sedge, Umbrella [15, 26] | Plant response rating, Sedge, Umbrella [15, 27]

CCc1cc[n+]([O-])c(S(=O)(=O)Cc2c(C(F)(F)F)nn(C)c2OC(F)F)c1 [Compound 102]
0: Wheat plant response rating [2, 28] | Plant response rating, Wheat [2, 30] | Corn plant response rating [4, 23] | Corn plant response rating [4, 32] | Plant response rating, Rice [8, 33] | Plant response rating, Sedge, Umbrella [15, 33] | Sunflower plant response rating [17, 28]
85: Plant response rating, Nightshade [3, 30] | Plant response rating, Goosegrass [9, 30] | Bermudagrass plant response rating ([12]; 62 g ai/ha, Preemergence, scale 0 to 100 (0 no effect, 100 complete control)) | Plant response rating, Bermudagrass [12, 30]
60: Plant response rating, Pigweed [1, 30] | Wheat plant response rating [16, 22] | Sunflower plant response rating [17, 29]
50: Corn plant response rating [4, 22] | Plant response rating, Morningglory ([7]; Postemergence, 125 g ai/ha) | Plant response rating, Wheat ([16]; Postemergence, 125 g ai/ha) | Wheat plant response rating [16, 23]
100: Pigweed plant response rating [1, 29] | Pigweed plant response rating [1, 31] | Crabgrass, Large plant response rating [5, 31] | Pigweed plant response rating [6, 22] | Pigweed plant response rating [6, 23] | Pigweed plant response rating [6, 32] | Morningglory plant response rating [7, 22] | Morningglory plant response rating [7, 23] | Morningglory plant response rating [7, 32] | Goosegrass plant response rating [9, 29] | Goosegrass plant response rating [9, 31] | Lambsquarters plant response rating [10, 29] | Lambsquarters plant response rating [10, 31] | Foxtail, Giant plant response rating [11, 32] | Bermudagrass plant response rating [12, 29] | Bermudagrass plant response rating [12, 31] | Barnyardgrass plant response rating [14, 32] | Wheat plant response rating [16, 32]
98: Nightshade plant response rating [3, 31] | Goosegrass plant response rating [9, 28]
90: Wheat plant response rating [2, 31] | Nightshade plant response rating [3, 28] | Foxtail, Giant plant response rating [11, 22] | Foxtail, Giant plant response rating [11, 23]
65: Plant response rating, Surinam Grass [13, 30]
80: Lambsquarters plant response rating [10, 28] | Plant response rating, Foxtail, Giant ([11]; Postemergence, 125 g ai/ha) | Barnyardgrass plant response rating [14, 22] | Barnyardgrass plant response rating [14, 23] | Sunflower plant response rating [17, 31]
70: Plant response rating, Crabgrass, Large [5, 30] | Plant response rating, Pigweed ([6]; Postemergence, 125 g ai/ha) | Surinam Grass plant response rating [13, 28] | Surinam Grass plant response rating [13, 29] | Plant response rating, Barnyardgrass ([14]; Postemergence, 125 g ai/ha) | Plant response rating, Sedge, Umbrella [15, 34]
40: Wheat plant response rating [2, 29] | Plant response rating, Corn ([4]; Postemergence, 125 g ai/ha) | Plant response rating, Lambsquarters [10, 30]
20: Plant response rating, Rice [8, 34]
95: Pigweed plant response rating [1, 28] | Nightshade plant response rating [3, 29] | Crabgrass, Large plant response rating [5, 28] | Crabgrass, Large plant response rating [5, 29] | Surinam Grass plant response rating [13, 31]
